Assay results published in patent publication US9399646B2 (Genentech, Inc., priority 2010, dated 2016).
pIC50: −log10 of the molar value.

Legend:
MCF-7 cells = experiment: Breast cancer cell viability assay (CellTiter-Glo, 5 days); assay type: cell-based; conditions: 5 days' compound exposure; for pIC50: Homo sapiens, MCF7, 120 h
In short: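 Eleven-point semilog compound series, final 0.3-0.000003 μM, added to overnight-adhered MCF-7 cells (320/well; RPMI, 10% FBS, 20 mM HEPES) for 5 days. Viability read by CellTiter-Glo luminescence, background from medium without cells subtracted, expressed relative to untreated cells.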

ER-α in MCF-7 cells = target: T1, ER-α in MCF-7 cells (Homo sapiens, UniProt P03372); experiment: Breast cancer cell ER-α in cell western assay (SP1); assay type: cell-based; set-up: endogenous in cells; host or cells: MCF-7; conditions: 4 or 24 hr post compound addition; for Emax: MCF7, SP1 antibody, read-out: ER-α In Cell Western Assay (SP1) Max Response; for DC50: SP1 antibody, read-out: ER-α In Cell Western Assay (SP1) IC50
T1 sequence (P03372 1-595): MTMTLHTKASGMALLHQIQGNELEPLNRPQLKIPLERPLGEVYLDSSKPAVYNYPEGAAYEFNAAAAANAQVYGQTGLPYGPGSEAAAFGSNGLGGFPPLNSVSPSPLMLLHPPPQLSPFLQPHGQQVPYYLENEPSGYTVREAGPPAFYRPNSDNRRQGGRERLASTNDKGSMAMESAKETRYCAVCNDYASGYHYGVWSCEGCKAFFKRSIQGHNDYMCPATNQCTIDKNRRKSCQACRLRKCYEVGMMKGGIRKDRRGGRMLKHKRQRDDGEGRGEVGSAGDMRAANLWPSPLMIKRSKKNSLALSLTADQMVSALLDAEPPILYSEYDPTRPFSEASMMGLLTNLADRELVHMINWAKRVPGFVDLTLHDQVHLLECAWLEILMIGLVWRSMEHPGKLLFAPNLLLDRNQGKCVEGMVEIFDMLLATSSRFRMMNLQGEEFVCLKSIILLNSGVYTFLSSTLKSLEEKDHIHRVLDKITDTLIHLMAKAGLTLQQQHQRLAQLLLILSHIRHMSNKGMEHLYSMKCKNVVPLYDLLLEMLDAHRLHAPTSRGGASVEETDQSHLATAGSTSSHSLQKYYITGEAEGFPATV
In short: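 Read-out is infrared in-cell western: SP1-detected ER intensity at 800 nm divided by DRAQ5 DNA intensity at 700 nm, relative to untreated wells ×100.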

| Structure (SMILES) | pIC50 (MCF-7 cells) | Emax (ER-α in MCF-7 cells) | DC50 (ER-α in MCF-7 cells) | MCF7 Viability Assay Max Response (MCF-7 cells) |
| --- | --- | --- | --- | --- |
| CC/C(=C(/c1ccc(/C=C/C(=O)NC)cc1)c1ccc2scnc2c1)c1ccccc1 [Compound 427, (E)-3-(4-((E)-1-(Benzo[d]thiazol-5-yl)-2-phenylbut-1-en-1-yl)phenyl)-N-methylacrylamide] | ≥ 7.00 | ≥ 40% | ≤ 100 nM | ++ (++ = a single % value ≧ 40%) |
| CC/C(=C(/c1ccc(/C=C/C(=O)NS(=O)(=O)c2ccccc2)cc1)c1ccc2[nH]ncc2c1)c1ccc(F)cc1Cl [Compound 428, (E)-3-(4-((E)-2-(2-Chloro-4-fluorophenyl)-1-(1H-indazol-5-yl)but-1-en-1-yl)phenyl)-N-(phenylsulfonyl)acrylamide] | ≥ 7.00 | ≥ 40% | ≤ 100 nM | ++ (++ = a single % value ≧ 40%) |
| CC/C(=C(/c1ccc(/C=C/C(=O)NS(=O)(=O)Cc2ccccc2)cc1)c1ccc2[nH]ncc2c1)c1ccc(F)cc1Cl [Compound 429, (E)-N-(Benzylsulfonyl)-3-(4-((E)-2-(2-chloro-4-fluorophenyl)-1-(1H-indazol-5-yl)but-1-en-1-yl)phenyl)acrylamide] | ≥ 7.00 | ≥ 40% | ≤ 100 nM | ++ (++ = a single % value ≧ 40%) |
| CC/C(=C(/c1ccc(/C=C/C(=O)NC2CCCC2)cc1)c1ccc2[nH]ncc2c1)c1ccccc1 [Compound 431, (E)-3-(4-((E)-1-(1H-Indazol-5-yl)-2-phenylbut-1-en-1-yl)phenyl)-N-cyclopentylacrylamide] | ≥ 7.00 | ≥ 40% | ≤ 100 nM | ++ (++ = a single % value ≧ 40%) |
| CC/C(=C(/c1ccc(/C=C/C(=O)NS(=O)(=O)c2cccnc2)cc1)c1ccc2[nH]ncc2c1)c1ccc(F)cc1Cl [Compound 433, (E)-3-(4-((E)-2-(2-Chloro-4-fluorophenyl)-1-(1H-indazol-5-yl)but-1-en-1-yl)phenyl)-N-(pyridin-3-ylsulfonyl)acrylamide] | ≥ 7.00 | ≥ 40% | ≤ 100 nM | ++ (++ = a single % value ≧ 40%) |
| CC/C(=C(/c1ccc(/C=C/C(=O)NS(=O)(=O)c2ccncc2)cc1)c1ccc2[nH]ncc2c1)c1ccc(F)cc1Cl [Compound 434, (E)-3-(4-((E)-2-(2-Chloro-4-fluorophenyl)-1-(1H-indazol-5-yl)but-1-en-1-yl)phenyl)-N-(pyridin-4-ylsulfonyl)acrylamide] | ≥ 7.00 | ≥ 40% | ≤ 100 nM | ++ (++ = a single % value ≧ 40%) |
| CC/C(=C(/c1ccc(/C=C/c2noc(=O)[nH]2)cc1)c1ccc2scnc2c1)c1ccc(F)cc1Cl [Compound 436, 3-((E)-4-((E)-1-(Benzo[d]thiazol-5-yl)-2-(2-chloro-4-fluorophenyl)but-1-en-1-yl)styryl)-1,2,4-oxadiazol-5(4H)-one] | ≥ 7.00 | ≥ 40% | ≤ 100 nM | ++ (++ = a single % value ≧ 40%) |
| CC/C(=C(/c1ccc(/C=C/c2noc(=O)[nH]2)cc1)c1ccc2[nH]ncc2c1)c1ccc(F)cc1Cl [Compound 437, 3-((E)-4-((E)-2-(2-Chloro-4-fluorophenyl)-1-(1H-indazol-5-yl)but-1-en-1-yl)styryl)-1,2,4-oxadiazol-5(4H)-one] | ≥ 7.00 | ≥ 40% | ≤ 100 nM | ++ (++ = a single % value ≧ 40%) |
| CC/C(=C(/c1ccc(/C=C/c2nsc(=O)[nH]2)cc1)c1ccc2[nH]ncc2c1)c1ccccc1 [Compound 438, 3-((E)-4-((E)-1-(1H-Indazol-5-yl)-2-phenylbut-1-en-1-yl)styryl)-1,2,4-thiadiazol-5(4H)-one] | ≥ 7.00 | ≥ 40% | ≤ 100 nM | ++ (++ = a single % value ≧ 40%) |
| CC/C(=C(/c1ccc(/C=C/c2noc(=S)[nH]2)cc1)c1ccc2[nH]ncc2c1)c1ccccc1 [Compound 440, 3-((E)-4-((E)-1-(1H-Indazol-5-yl)-2-phenylbut-1-en-1-yl)styryl)-1,2,4-oxadiazole-5(4H)-thione] | ≥ 7.00 | ≥ 40% | ≤ 100 nM | + (+ = a single % value < 40%) |
| CC/C(=C(/c1ccc(/C=C/c2nn[nH]n2)cc1)c1ccc2[nH]ncc2c1)c1ccccc1 [Compound 442, 5-((E)-1-(4-((E)-2-(2H-Tetrazol-5-yl)vinyl)phenyl)-2-phenylbut-1-en-1-yl)-1H-indazole] | ≥ 7.00 | ≥ 40% | ≤ 100 nM | ++ (++ = a single % value ≧ 40%) |
| CC/C(=C(/c1ccc(/C=C/c2nn[nH]n2)cc1)c1ccc2[nH]ncc2c1)c1ccccc1Cl [Compound 443, 5-((E)-1-(4-((E)-2-(2H-Tetrazol-5-yl)vinyl)phenyl)-2-(2-chlorophenyl)but-1-en-1-yl)-1H-indazole] | ≥ 7.00 | ≥ 40% | ≤ 100 nM | ++ (++ = a single % value ≧ 40%) |
| CC/C(=C(/c1ccc(/C=C/c2nn[nH]n2)cc1)c1ccc2scnc2c1)c1ccccc1 [Compound 444, 5-((E)-1-(4-((E)-2-(2H-Tetrazol-5-yl)vinyl)phenyl)-2-phenylbut-1-en-1-yl)benzo[d]thiazole] | < 7.00 | ≥ 40% | ≤ 100 nM | ++ (++ = a single % value ≧ 40%) |
| CC/C(=C(/c1ccc(/C=C/c2nn[nH]n2)cc1)c1ccc2scnc2c1)c1ccncc1Cl [Compound 446, 5-((E)-1-(4-((E)-2-(2H-Tetrazol-5-yl)vinyl)phenyl)-2-(3-chloropyridin-4-yl)but-1-en-1-yl)benzo[d]thiazole] | ≥ 7.00 | ≥ 40% | ≤ 100 nM | ++ (++ = a single % value ≧ 40%) |

Continued, in another order:

| pIC50 (MCF-7 cells) | Emax (ER-α in MCF-7 cells) | DC50 (ER-α in MCF-7 cells) | Structure (SMILES) | MCF7 Viability Assay Max Response (MCF-7 cells) |
| --- | --- | --- | --- | --- |
| ≥ 7.00 | ≥ 40% | ≤ 100 nM | CC/C(=C(/c1ccc(/C=C/C(=O)Nc2nccs2)cc1)c1ccc2[nH]ncc2c1)c1ccccc1 [Compound 430, (E)-3-(4-((E)-1-(1H-Indazol-5-yl)-2-phenylbut-1-en-1-yl)phenyl)-N-(thiazol-2-yl)acrylamide] | ++ (++ = a single % value ≧ 40%) |
| ≥ 7.00 | ≥ 40% | ≤ 100 nM | CC/C(=C(/c1ccc(/C=C/C(=O)NS(=O)(=O)c2ccccn2)cc1)c1ccc2[nH]ncc2c1)c1ccc(F)cc1Cl [Compound 432, (E)-3-(4-((E)-2-(2-Chloro-4-fluorophenyl)-1-(1H-indazol-5-yl)but-1-en-1-yl)phenyl)-N-(pyridin-2-ylsulfonyl)acrylamide] | ++ (++ = a single % value ≧ 40%) |
| ≥ 7.00 | ≥ 40% | ≤ 100 nM | CC/C(=C(/c1ccc(/C=C/c2noc(=O)[nH]2)cc1)c1ccc2[nH]ncc2c1)c1ccccc1 [Compound 435, 3-((E)-4-((E)-1-(1H-Indazol-5-yl)-2-phenylbut-1-en-1-yl)styryl)-1,2,4-oxadiazol-5(4H)-one] | ++ (++ = a single % value ≧ 40%) |
| ≥ 7.00 | ≥ 40% | ≤ 100 nM | CC/C(=C(/c1ccc(/C=C/c2nsc(=O)[nH]2)cc1)c1ccc2[nH]ncc2c1)c1ccc(F)cc1Cl [Compound 439, 3-((E)-4-((E)-2-(2-Chloro-4-fluorophenyl)-1-(1H-indazol-5-yl)but-1-en-1-yl)styryl)-1,2,4-thiadiazol-5(4H)-one] | ++ (++ = a single % value ≧ 40%) |
| ≥ 7.00 | ≥ 40% | ≤ 100 nM | CC/C(=C(/c1ccc(/C=C/c2noc(=S)[nH]2)cc1)c1ccc2[nH]ncc2c1)c1ccc(F)cc1Cl [Compound 441, 3-((E)-4-((E)-2-(2-Chloro-4-fluorophenyl)-1-(1H-indazol-5-yl)but-1-en-1-yl)styryl)-1,2,4-oxadiazole-5(4H)-thione] | + (+ = a single % value < 40%) |
| ≥ 7.00 | ≥ 40% | ≤ 100 nM | CC/C(=C(/c1ccc(/C=C/c2nn[nH]n2)cc1)c1ccc2scnc2c1)c1ccc(F)cc1Cl [Compound 445, 5-((E)-1-(4-((E)-2-(2H-Tetrazol-5-yl)vinyl)phenyl)-2-(2-chloro-4-fluorophenyl)but-1-en-1-yl)benzo[d]thiazole] | ++ (++ = a single % value ≧ 40%) |
